Measured values from patent US20220387408A1, “USE OF MAST CELL STABILIZER FOR THE TREATMENT OF HEART FAILURE WITH PRESERVED EJECTION FRACTION” (INSERM (INSTITUT NATIONAL DE LA SANTÉ ET DE LA RECHERCHE …, priority 2019, published 2022).
“Also recorded” adds a separate entry of the source.

Assays:
Type in all cases: in vivo
Lepr^db/db female mice [1] = test: Echocardiography (ejection fraction, LV wall thickness) in Lepr^db/db mice; conditions: data not shown
Description: Lepr^db mice (BKS.Cg-Dock7m/+ Lepr^db/+J) were obtained from Charles River laboratories and bred together to obtain Lepr^db/db and control Lepr^db/+ mice.
[…] Untreated mice received 0.9% NaCl daily intra-peritoneal injections.
Left-ventricular ejection fraction and LV dimension will be measured on a high-resolution echocardiographic system equipped with a 30-MHz mechanical transducer (VEVO 2100, VisualSonics Inc.) as previously described 13,14. Mice were anchored to a warming platform in a supine position, limbs were taped to the echocardiograph electrodes, and chests were shaved and cleaned with a chemical hair remover to minimize ultrasound attenuation. UNI′GEL ECG (Asept Inmed), from which all air bubbles had been expelled, was applied to the thorax to optimize the visibility of the cardiac chambers. Ejection fractions were evaluated by planimetry as recommended (Schiller et al. 1989). Two-dimensional, parasternal long-axis and short-axis views were acquired, and the endocardial area of each frame was calculated by tracing the endocardial limits in the long-axis view, then the minimal and maximal areas were used to determine the left-ventricular end-systolic (ESV) and end-diastolic (EDV) volumes, respectively. The system software uses a formula based on a cylindrical-hemiellipsoid model (volume=8·area^2/3π/length) 15. The left-ventricular ejection fraction was derived from the following formula: (EDV−ESV)/EDV*100. The cardiac wall thickness (Left ventricular posterior wall (LVPW), Inter-ventricular septum (IVS) and left ventricular internal diameter (LVID) were calculated by tracing wall limits in both the long and short axis views.

Lepr^db/db female mice [2] = test: LV end diastolic pressure measurement by pressure catheter in Lepr^db/db mice; conditions: 2 month old Lepr^db/db female mice
Procedure: Lepr^db mice (BKS.Cg-Dock7m/+ Lepr^db/+J) were obtained from Charles River laboratories and bred together to obtain Lepr^db/db and control Lepr^db/+ mice. To prevent mast cell degranulation, mice were treated with 50 mg/kg/day cromolyn sodium (Abcam) via intra-peritoneal injections for 28 days. Untreated mice received 0.9% NaCl daily intra-peritoneal injections. […] LV diastolic pressure measurement was assessed using pressure—volume conductance catheter technique. Briefly, mice will be anesthetized with Isoflurane. A Scisense pressure catheter (Transonic) will be inserted into the LV through the common carotid artery. Pressure will be recorded using […] LabChart software. End diastolic pressure, dP/dt minimum and maximum, Tau and heart rate were automatically calculated by a curve fit through end-systolic and end-diastolic points on the pressure plot.

Lepr^db/db female mice [3] = test: Immuno-histological assessment of the heart (capillaries, albumin, CD45+ leucocytes, mast cells, cardiomyocyte size) in Lepr^db/db mice
Procedure: Lepr^db mice (BKS.Cg-Dock7m/+ Lepr^db/+J) were obtained from Charles River laboratories and bred together to obtain Lepr^db/db and control Lepr^db/+ mice. To prevent mast cell degranulation, mice were treated with 50 mg/kg/day cromolyn sodium (Abcam) via intra-peritoneal injections for 28 days. Untreated mice received 0.9% NaCl daily intra-peritoneal injections. […] Prior to staining, heart were stopped in diastole using KCl, perfused and then fixed in 10% formalin for 4 hours, paraffin embedded and cut into 7 μm thick sections. Alternatively, heart were fresh frozen in OCT, then cut into 7 μm thick sections. ECs were identified using rat anti-CD31 antibodies (Histonova, cat #DIA-310). Albumin was stained using sheep anti-albumin antibodies (Abcam, Cat #ab8940). Pan-leucocytes were identified using rat anti-mouse CD45 antibodies (BD Pharmingen Inc, Cat #550539). For immunofluorescence analyzes, primary antibodies were resolved with Alexa Fluor®-conjugated secondary polyclonal antibodies (Invitrogen, Cat #[NT]-10037) and nuclei were counterstained with DAPI (1/5000). Negative controls using secondary antibodies only were done to check for antibody specificity. Capillary density (CD31+ vessels) was quantified in 4 pictures taken under ×260 magnification in areas where cardiomyocytes were oriented transversally. To assess the mean capillary diameter, the diameter of 10 capillary randomly chosen in each picture was measured via Image J. Inflammatory cell density (CD45+) was quantified in 8 pictures randomly taken under ×260 magnification. All pictures and quantifications (done using ImageJ/Fiji v2.0.0-rc-59 software (National Institute of Health, USA)) were performed by a blinded investigator. More precisely, all samples were assigned a random number prior to animal sacrifice, data collection and analysis. At the end of the experiment, the genotype/treatment for each animal was unveiled to allow data comparison and experimental conclusion.

Lepr^db/db female mice [4] = test: Heart weight in Lepr^db/db mice; conditions: 50 mg/kg/day cromolyn sodium for 28 days; data not shown
Procedure: To prevent mast cell degranulation, mice were treated with 50 mg/kg/day cromolyn sodium (Abcam) via intra-peritoneal injections for 28 days. Untreated mice received 0.9% NaCl daily intra-peritoneal injections.

[5] = 50 mg/kg/day cromolyn sodium for 28 days

Row | Structure (SMILES) | Ejection fraction (Lepr^db/db female mice [1]; 4 mg/kg/day cetirizine orally for 28 days) | End diastolic pressure (EDP) (Lepr^db/db female mice [2]; 4 mg/kg/day cetirizine orally (drinking water) for 28 days vs vehicle, FIG. 1B) | Cardiac microvessel density (CD31+ vessels/mm^2) (Lepr^db/db female mice [3]; 50 mg/kg/day cromolyn sodium for 28 days vs vehicle, FIG. 2A) | Mean cardiac capillary diameter (Lepr^db/db female mice [3]; 50 mg/kg/day cromolyn sodium for 28 days vs vehicle, FIG. 2B) | Capillary permeability (albumin extravasation, albumin+ surface area) (Lepr^db/db female mice [3]; 50 mg/kg/day cromolyn sodium for 28 days vs vehicle, FIG. 2C) | CD45+ leucocyte recruitment (CD45+ cells/mm^2) (Lepr^db/db female mice [3]; 50 mg/kg/day cromolyn sodium for 28 days vs vehicle, FIG. 2D) | Percentage of degranulating mast cells in the heart (Lepr^db/db female mice [3]; 50 mg/kg/day cromolyn sodium for 28 days vs vehicle, data not shown) | Mean cardiomyocyte size (Lepr^db/db female mice [3]; 50 mg/kg/day cromolyn sodium for 28 days, data not shown) | Ejection fraction (Lepr^db/db female mice [1]; [5]) | LV posterior wall thickness (Lepr^db/db female mice [1]; [5]) | Heart weight (Lepr^db/db female mice [4]) | End diastolic pressure (EDP) (Lepr^db/db female mice [2]; 50 mg/kg/day cromolyn sodium intra-peritoneal for 28 days vs vehicle, FIG. 1A) | End diastolic pressure (EDP) (Lepr^db/db female mice [2]; 50 mg/kg/day cromolyn sodium intra-peritoneal for 28 days vs vehicle, FIG. 1A, listed as Cromolyn Sodium) | End diastolic pressure (EDP) (Lepr^db/db female mice [2]; 50 mg/kg/day cromolyn sodium intra-peritoneal for 28 days vs vehicle, FIG. 1A, listed as Cromolyn sodium)
1 | O=C(O)COCCN1CCN(C(c2ccccc2)c2ccc(Cl)cc2)CC1 (centres unmarked) [cetirizine] | not modulated | significantly decreased |  |  |  |  |  |  |  |  |  |  |  | 
2 | O=C(O)c1cc(=O)c2c(OCC(O)COc3cccc4oc(C(=O)O)cc(=O)c34)cccc2o1 [cromolyn sodium] |  |  | did not modify | did reduce | decreased | decreases; also recorded: significantly decreased | did decrease | did neither modify | not modulated | did neither modify | did neither modify | significantly decreased; also recorded: prevents increased EDP | prevents the occurrence of diastolic dysfunction | significantly reduced
